Test: solvent given as SMILES

CCCCCC
Settings | solvation free energy, 298 K [kcal/mol]
in BrC(Br)C(Br)Br | -2.72
in Brc1cccc2ccccc12 | -3.07
in Brc1ccccc1 | -3.65
in C1=Cc2ccccc2C1 | -3.49
in C1CCC(C2CCCCC2)CC1 | -3.73
in C1CCCCC1 | -4.06
in C1CCOC1 | -3.9
in C1COCCO1 | -3.22
in C=CCCCC | -4.02
in C=CCCCCCC | -3.93
in C=CCCCCCCCC | -3.92
in C=CCCCCCCCCCCCCCC | -3.59
in CC1CCS(=O)(=O)C1 | -2.13
in CC1COC(=O)O1 | -2.04
in CC#N | -2.63
in CC(=O)CC(C)C | -3.59
in CC(=O)N(C)C | -2.76
in CC(=O)O | -2.89
in CC(=O)OCc1ccccc1 | -3.02
in CC(=O)c1ccccc1 | -3.04
in CC(C)(C)Cl | -4
in CC(C)(C)O | -3.33
in CC(C)=O | -3.26
in CC(C)CCCC(C)CCCC(C)CCCCC(C)CCCC(C)CCCC(C)C | -3.47
in CC(C)CCO | -3.31
in CC(C)CCl | -3.94
in CC(C)CO | -3.36
in CC(C)O | -3.21
in CC(C)OC(C)C | -3.98
in CC(O)CO | -1.94
in CCBr | -4.08
in CCC#N | -3.13
in CCC(C)(C)C | -4.04
in CCC(C)(C)OC | -3.92
in CCC(C)=O | -3.44
in CCC(C)Cl | -3.98
in CCCC#N | -3.07
in CCCC(=O)OCC | -3.64
in CCCC(C)=O | -3.52
in CCCCC | -4.11
in CCCCC#N | -3.27
in CCCCC(CC)COC(=O)CCCCC(=O)OCC(CC)CCCC | -3.33
in CCCCC(CC)COC(=O)c1ccccc1C(=O)OCC(CC)CCCC | -3.13
in CCCCCC#N | -3.28
in CCCCCC(C)=O | -3.54
in CCCCCCC | -3.97
in CCCCCCCC | -3.92
in CCCCCCCCC | -3.86
in CCCCCCCCC=CCCCCCCCC(=O)OCC(COC(=O)CCCCCCCC=CCCCCCCCC)OC(=O)CCCCCCCC=CCCCCCCCC | -3.45
in CCCCCCCCCC | -3.83
in CCCCCCCCCCCC | -3.73
in CCCCCCCCCCCCCC | -3.6
in CCCCCCCCCCCCCCCC | -3.64
in CCCCCCCCCCCCO | -3.31
in CCCCCCCCCOC(=O)c1ccccc1C(=O)OCCCCCCCCC | -3.23
in CCCCCCCCN(CCCCCCCC)CCCCCCCC | -3.49
in CCCCCCCCO | -3.36
in CCCCCCCO | -3.33
in CCCCCCO | -3.39
in CCCCCCOC(C)=O | -3.61
in CCCCCN(CCCCC)CCCCC | -3.67
in CCCCCO | -3.33
in CCCCCl | -3.91
in CCCCN(C=O)CCCC | -3.25
in CCCCN(CCCC)CCCC | -3.6
in CCCCO | -3.32
in CCCCOC(=O)c1ccccc1C(=O)OCCCC | -3.24
in CCCCOC(C)=O | -3.59
in CCCCOCCCC | -3.87
in CCCO | -3.16
in CCN1CCCC1=O | -2.88
in CCN(CC)C(C)=O | -3.11
in CCN(CC)CC | -4.01
in CCNC(C)=O | -2.92
in CCNC=O | -2.69
in CCO | -3.1
in CCOC(=O)c1ccccc1C(=O)OCC | -2.73
in CCOC(C)(C)C | -3.93
in CCOC(C)=O | -3.46
in CCOCC | -3.99
in CCOCCO | -2.96
in CCOCCOCCOCC | -3.42
in CCOc1ccccc1 | -3.49
in CN1CCCC1=O | -2.65
in CN1CCCCC1=O | -2.78
in CN1CCN(C)C1=O | -2.51
in CN(C)C=O | -2.62
in CN(C)P(=O)(N(C)C)N(C)C | -2.98
in CNC(C)=O | -2.74
in CNC=O | -2.36
in CO | -2.82
in COC(C)(C)C | -4.01
in COC(C)=O | -3.3
in COCCO | -2.7
in COCCOCCOCCOCCOC | -2.82
in COc1ccccc1 | -3.41
in CS(C)=O | -1.83
in Cc1ccc(C)cc1 | -3.87
in Cc1cccc2ccccc12 | -3.36
in Cc1cccc(C)c1 | -3.85
in Cc1cccc(O)c1 | -2.91
in Cc1ccccc1 | -3.87
in Cc1ccccn1 | -3.5
in ClC(Cl)(Cl)Cl | -4.08
in ClC(Cl)C(Cl)Cl | -3.35
in ClC(Cl)Cl | -3.94
in ClCCCl | -3.45
in ClCCl | -3.75
in Clc1cccc2ccccc12 | -3.23
in Clc1ccccc1 | -3.85
in FC(F)(F)C(F)(F)C(F)(F)C(F)(F)C(F)(F)C(F)(F)C(F)(F)C(F)(F)F | -2.53
in FC(F)(F)C(F)(F)C(F)(F)C(F)(F)C(F)(F)C(F)(F)F | -2.67
in Fc1ccccc1 | -3.88
in ICI | -2.2
in N#CCCCC#N | -1.5
in N#CCCCCC#N | -1.86
in N#CCCO | -1.84
in N#CCCOCCC#N | -0.89
in N#CCc1ccccc1 | -2.62
in N#Cc1ccccc1 | -3.13
in NC=O | -0.53
in NCCN | -1.85
in NCCO | -0.77
in NCc1ccccc1 | -2.92
in Nc1ccccc1 | -2.36
in O=C1CCCCC1 | -3.37
in O=C1CCCO1 | -2.22
in O=C(O)C(Cl)Cl | -2.74
in O=CN1CCOCC1 | -1.98
in O=Cc1ccco1 | -2.37
in O=S=O | -3.18
in OC1CCCCC1 | -3.1
in OCC1CCCO1 | -2.62
in OCCCCCO | -2.03
in OCCCCO | -1.88
in OCCCO | -1.54
in OCCCl | -2.22
in OCCOCCO | -1.43
in OCCOCCOCCO | -1.54
in OCCOCCOCCOCCO | -1.65
in OCCS | -1.9
in OCCc1ccccc1 | -2.75
in OCc1ccccc1 | -2.66
in OCc1ccco1 | -2.27
in S=C=S | -4.03
in c1ccc2c(c1)CCCC2 | -3.65
in c1ccc2ncccc2c1 | -3.1
in c1ccc(C2CCCCC2)cc1 | -3.62
in c1ccccc1 | -3.84
in c1ccncc1 | -3.27

From the CombiSolv-Exp solvation set (Vermeire and Green 2021)
